IC50 data for two molecules are collected here from BindingDB's records for patent US20250304587 (Jiangsu Tasly Diyi Pharmaceutical, 2025).

For this assay, the target named is Cytochrome P450 2C19 (Homo sapiens, UniProt P33261). Nature of the assay: Evaluation of Compound Inhibition of Cytochrome P450.
Sequence of Cytochrome P450 2C19 (P33261 whole entry): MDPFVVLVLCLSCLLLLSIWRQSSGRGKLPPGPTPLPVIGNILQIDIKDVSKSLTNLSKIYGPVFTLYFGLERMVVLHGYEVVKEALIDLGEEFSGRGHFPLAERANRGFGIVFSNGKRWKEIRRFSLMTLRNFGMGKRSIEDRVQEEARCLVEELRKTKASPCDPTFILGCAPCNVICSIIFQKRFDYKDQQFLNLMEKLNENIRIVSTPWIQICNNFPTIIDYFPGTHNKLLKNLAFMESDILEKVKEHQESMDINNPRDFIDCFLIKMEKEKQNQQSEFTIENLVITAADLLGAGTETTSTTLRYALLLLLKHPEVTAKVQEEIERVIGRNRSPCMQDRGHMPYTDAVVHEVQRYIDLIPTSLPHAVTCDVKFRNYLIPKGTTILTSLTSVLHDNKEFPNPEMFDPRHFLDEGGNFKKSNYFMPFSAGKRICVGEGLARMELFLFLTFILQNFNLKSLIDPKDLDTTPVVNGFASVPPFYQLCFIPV

Procedure: Enzymatic experiments were performed to quantify the inhibition of CYP450 enzyme activity of each isoform of CYP450 by small molecule inhibitors through fluorescence generated by the oxidation of the substrate by cytochrome P450. […] The Solution B composition used for the experiment was: 40 U/mL G6PDH (Sigma-aldrich, Cat #G6378). The substrate mix was 0.05× Solution A, 0.01× Solution B, 50 mM Potassium Phosphate, 0.01 mM BOMCC/0.01 mM EOMCC/0.001 mM DBOMF.

In turn, `C=CCn1c(=O)c2cnc(Nc3ccc(N4CC5CC(C4)N5C)cc3)nc2n1-c1ccc2c(n1)[C@@](C)(O)C1(CC2)CC1` [US20250304587, Compound 7a] displayed an IC50 of 1 to 10 µM.
Turning to `C=CCn1c(=O)c2cnc(Nc3ccc(N4CCC5(CCN(C)CC5)CC4)cc3)nc2n1-c1ccc2c(n1)[C@](C)(O)C1(CC2)CC1` (racemic) [US20250304587, Compound 44], the IC50 is 1 to 10 µM.
